Laboratory results taken from patent US10723778B2, “Variants of adrenomedullin and calcitonin gene-related peptide and methods of use” (The Board of Regents of the University of Oklahoma, priority 2015, dated 2020).
One block for each molecule: values may come before it. Where no end group is shown, it is not given here.

Experiments:
RAMP2-CLR ECD = target: T1, RAMP2-CLR ECD (Homo sapiens, UniProt O60895+Q16602, L106R); experiment: AlphaLISA/AlphaScreen competition peptide binding assay, AM1 receptor ECD complex
T1 construct: MBP-hRAMP2.55-140 [L106R]-(Gly-Ser-Ala)3-hCLR.29-144-H6; made in house; host or cells: E. coli
Procedure: Protein production and characterization and peptides. Plasmid construction, mutagenesis, protein expression, purification, and the AlphaScreen® peptide binding assay (Perkin-Elmer, Waltham, Mass.) were performed as previously described with minor modifications to the AlphaScreen® assay (Hill and Pioszak, Protein expression and purification (2013) 88:107-113; and Moad and Pioszak, Protein Sci. (2013) 22:1775-85). Synthetic peptides were from RS Synthesis (Louisville, Ky.), Bachem (Bubendorf, Switzerland), or were synthesized in-house. […]
FIG. 1 depicts in (B) binding of an AM C-terminal peptide, AM(37-52)NH2, and the two variant AM C-terminal peptides to purified AM1 receptor extracellular domain complex (CLR:RAMP2). The ability of the indicated peptides to displace a Biotin-CGRP probe (50 nM) from purified MBP-RAMP1 ECD-(GS)5-CTR ECD-H6 fusion protein (5 nM) or a Biotin-AM probe (25 nM) from purified MBP-RAMP2 ECD [L106R]-(GS)5-[…] ECD-H6 fusion protein (5 nM) was assessed by AlphaLISA® luminescent peptide binding assay (Perkin-Elmer, Waltham, Mass.). […] The reactions were incubated for 5 hours at room temperature to reach equilibrium, and the luminescence was measured in white 384-well plates using a BMG LABTECH's POLARstar Omega plate reader (Ortenberg, Germany). […]

[1] = target: T2, RAMP1-CLR ECD (CGRP); purified MBP-RAMP1 ECD-(GS)5-CLR ECD-H6 fusion protein (Homo sapiens, UniProt O60894+Q16602); experiment: Fluorescence polarization (FP) peptide binding competition assay, CGRP receptor ECD complex; conditions: for Receptor Selectivity (in words): CGRP vs AM1 receptor ECD complexes; for Receptor Selectivity (in words) / Receptor Selectivity, fold for CGRP: FP assay; for Ki: RAMP1-CLR ECD (CGRP) KI (nM), FP competition, FITC-AM W/W probe 7 nM, fusion protein 15 nM; for Receptor Selectivity, fold for CGRP: CGRP (RAMP1-CLR ECD) over AM1 (RAMP2-CLR ECD)
T2 construct: MBP-hRAMP1.24-111-(Gly-Ser)5-hCLR.29-144-H6; made in house; host or cells: E. coli
Procedure: Fluorescence polarization peptide binding assay. […] The reactions (50 μL) were incubated for 2 hours at room temperature to reach equilibrium, and the anisotropy was measured in black half-area 96-well plates using a BMG LABTECH's POLARstar® Omega plate reader (Ortenberg, Germany). The reaction buffer was 50 mM HEPES, pH 7.5, 150 mM NaCl, 0.5 mg/ml fatty acid-free BSA, 0.5 mM EDTA, 0.5 mM maltose. Ki values were calculated using nonlinear regression fitting of the competition curves to the exact analytical equations of Roehrl et al. (Biochemistry (2004) 43:16056-66) using GraphPad Prism 5.0 (GraphPad Software, San Diego Calif.).
(§1) The ability of the indicated peptides to displace a FITC-Ahx-AM(37-52)NH2 [S45W, Q50W] probe (7 nM) from purified MBP-RAMP1 ECD-(GS)5-CLR ECD-H6 fusion protein (15 nM) was assessed by fluorescence polarization (anisotropy). The reactions were incubated for 2 hours at room temperature to reach equilibrium, and the anisotropy was measured in black half-area 96-well plates using a BMG LABTECH's POLARstar® Omega plate reader (Ortenberg, Germany). The reaction buffer was 50 mM HEPES, pH 7.5, 150 mM NaCl, 0.5 mg/ml fatty acid-free BSA, 0.5 mM EDTA, 0.5 mM maltose. KI values were calculated using nonlinear regression fitting of the competition curves to the exact analytical equations of Roehrl et al. (Biochemistry (2004) 43:16056-66) using GraphPad Prism 5.0 (GraphPad Software, San Diego Calif.).
as §1, with “Single representative experiments conducted with duplicate samples are shown. Error bars are S.E.M. The ability” for “The ability”, “displace a FITC-Ahx-AM(37-52)NH2[S45W, Q50W] probe” for “displace a FITC-Ahx-AM(37-52)NH2 [S45W, Q50W] probe”
A fluorescence polarization/anisotropy (FP) peptide-binding assay was developed using N-terminally FITC-labeled AM(37-52) S45W/Q50W as the probe, hereafter “FITC-AM W/W.” The probe was custom synthesized and HPLC-purified by RS Synthesis. The large size difference between the MBP-RAMP ECD-CLR ECD fusion proteins (˜65 kDa) and the probe (˜2.5 kDa) ensures a significant anisotropy difference between bound and free states of the probe. […] Kd values for the probe at each of the tethered ECD fusion proteins were determined in equilibrium saturation binding experiments (data not shown), and KI values were determined for unlabeled peptides in equilibrium competition experiments (Table 1; FIGS. 2-5). The data were analyzed according to exact analytical equations using non-linear regression curve fitting in GraphPad Prism 5.0 (GraphPad Software) via user-defined equations.

[2] = target: T3, membranes of SK-N-MC cells, which express the CGRP receptor (Homo sapiens, UniProt O60894+Q16602); conditions: read-out: IC50 reported for binding to membranes of SK-N-MC cells; cited from earlier work
T3 construct: membranes of SK-N-MC cells, which express the CGRP receptor; host or cells: SK-N-MC cell membranes (endogenous receptor)

[3] = target: T4, full-length CGRP (RAMP1:CLR) receptor transiently expressed in COS-7 cells (Homo sapiens, UniProt O60894+Q16602); experiment: Antagonism of CGRP-activated cAMP signaling in COS-7 cells; format: cell-based
T4 construct: Plasmids for expression of tagged full-length CLR and RAMP1 or RAMP2 receptors in mammalian cells were previously described; expressed in transfected cells; host or cells: COS-7
Procedure: (§2) Cell-based assays. Transfection of COS-7 cells, cAMP assay, ELISA for cell surface expression, and data analysis were as previously described (Barwell et al., Peptides (2010) 31:170-176; Watkins et al., Br J Pharmacol (2014) 171:772-788).
(§3) A single representative experiment conducted with duplicate samples is shown. Error bars are S.E.M. The experiments were performed as described in Lee et al. (J Biol. Chem (2016) 291:8686-8700). […] (B) depicts antagonism of AM-activated cAMP signaling at the AM1 receptor.
(§4) Forty-eight hours after transfection, the cells were pre-incubated for 30 minutes in the absence or presence of 500 nM AM(37-52)NH2 [S45W/K46L/Q50W/Y52F], and then stimulated for 15 minutes with increasing concentrations of agonist peptide in the absence or presence of 500 nM antagonist. The cells were lysed, and cAMP was quantitated using a LANCE TR-FRET cAMP kit (Perkin-Elmer Waltham, Mass.).

[4] = target: T5, AMY1 receptor extracellular domain complex; purified MBP-RAMP1 ECD-(GS)5-CTR ECD-H6 fusion protein (Homo sapiens, UniProt O60894+P30988); experiment: AlphaLISA luminescent peptide binding assay, AMY1 receptor ECD complex; conditions: displacement of Biotin-AC413 probe (100 nM), fusion protein 200 nM
T5 construct: purified MBP-RAMP1 ECD-(GS)5-CTR ECD-H6 fusion protein (200 nM); made in house; host or cells: HEK293T
Procedure: A single representative experiment conducted with duplicate samples is shown. Error bars are S.E.M. The ability of the indicated peptides to displace a Biotin-AC413 probe (100 nM) from purified MBP-RAMP1 ECD-(GS)5-CTR ECD-H6 fusion protein (200 nM) was assessed by AlphaLISA® luminescent peptide binding assay (Perkin-Elmer, Waltham, Mass.) as described in Lee et al. (J Biol. Chem (2016) 291:8686-8700). The reactions were incubated for 5 hours at room temperature to reach equilibrium, and the luminescence was measured in white 384-well plates using a BMG LABTECH's POLARstar® Omega plate reader (Ortenberg, Germany). The reaction buffer was 50 mM MOPS, pH 7.4, 150 mM NaCl, 7 mg/ml fatty acid-free BSA and the streptavidin-coated donor beads and MBP-antibody coated acceptor beads were at 15 μg/ml each. IC50 values were calculated using nonlinear regression fitting of the competition curves to a three-parameter, one-site competitive binding equation in GraphPad Prism 5.0 (GraphPad Software, San Diego Calif.).

[5] = target: T6, full-length AM1 (RAMP2:CLR) receptor transiently expressed in COS-7 cells (Homo sapiens, UniProt O60895+Q16602); experiment: Antagonism of AM-activated cAMP signaling in COS-7 cells; format: cell-based; conditions: 500 nM antagonist
T6 construct: Plasmids for expression of tagged full-length CLR and RAMP1 or RAMP2 receptors in mammalian cells were previously described; expressed in transfected cells; host or cells: COS-7
Procedure: as §2, §3, §4

IC50 (RAMP2-CLR ECD; read-out: IC50 in AlphaLISA or AlphaScreen competition assays, RAMP2-CLR ECD): 5000 to 15000 nM
Receptor Selectivity (in words) [1]: AM1 over CGRP
Ki [1]: > 100000 nM
Molecule: DKDNVAPRSKISPQGY-NH2 [WT, reference compound]

fold increased affinity for RAMP2-CLR ECD (RAMP2-CLR ECD; competition assays, relative to AM(37-52)NH2): ~100 fold
Receptor Selectivity (in words) [1]: Non-selective
Ki [1]: 501 nM
Molecule: DKDNVAPRSKISPWGY-NH2 [Peptide Q50W]

Molecule: CC(C)[C@H](NC(=O)[C@H](CC(=O)O)NC(=O)[C@@H](NC(=O)[C@@H]1CCCN1C(=O)[C@@H](NC(=O)[C@@H](N)Cc1ccccc1)C(C)C)[C@@H](C)O)C(=O)NCC(=O)N1CCC[C@H]1C(=O)N[C@@H](Cc1ccccc1)C(=O)N[C@@H](C)C(=O)N[C@@H](Cc1ccccc1)C(N)=O [CGRPmut [N31D/S34P/K35F]]
IC50 [2]: 29 nM

Molecule: DKDNVAPRWLISPWGF-NH2 [S45W/K46L/Q50W/Y52F]
Kb [3]: 10.5 nM
pA2, antagonism of CGRP-activated cAMP signaling at the CGRP receptor ([3]; 500 nM antagonist, COS-7 cells, Gaddum/Schild EC50 shift, slopes constrained to 1): ~8
affinity for the intact CGRP receptor suggested by pA2 ([3]; COS-7 cells): ~10 nM
IC50 [4]: 16000 nM
Receptor Selectivity, fold for CGRP [1]: 2131-fold for CGRP
Receptor Selectivity, fold for CGRP ([1]; listed as AM(37-52)NH2 [S45W/K46L/Q50W/Y52F]): > 2000 fold
Ki [1]: 1.91 nM
antagonism of the AM1 receptor (cAMP) [5]: did not antagonize the AM1 receptor
